# Laboratory results reported in EP0590919A1, “Therapeutic agents for parkinson's disease” (KYOWA HAKKO KOGYO CO., LTD., priority 1992, dated 1994).
# Read-outs that look alike come from different tables or passages of the source.
# Columns and labels:
# [1] = biological target: T1, A₁ receptor (Cavia porcellus, UniProt P47745); assay: Adenosine A₁ receptor binding test (³H-CHA binding); set-up: species or system guinea pig; conditions: for inhibition at 100 µM: 10⁻⁴M; for inhibition at 100 µM / inhibition at 10 µM: guinea pig cerebrum; for inhibition at 10 µM: 10⁻⁵M; for Ki: Cheng-Prusoff's equation
# T1 construct: from tissue; host or cells: guinea pig cerebrum membrane preparation
# T1 sequence (P47745 1-326): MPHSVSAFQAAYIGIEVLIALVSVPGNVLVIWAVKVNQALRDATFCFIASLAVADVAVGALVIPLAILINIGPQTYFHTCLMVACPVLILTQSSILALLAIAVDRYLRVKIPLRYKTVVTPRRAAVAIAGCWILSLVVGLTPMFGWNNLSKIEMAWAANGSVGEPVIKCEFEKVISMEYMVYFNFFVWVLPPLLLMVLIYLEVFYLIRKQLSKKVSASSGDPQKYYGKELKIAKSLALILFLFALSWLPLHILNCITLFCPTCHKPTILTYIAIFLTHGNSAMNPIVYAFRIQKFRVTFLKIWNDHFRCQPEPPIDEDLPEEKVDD
# Protocol: Cerebrum of a guinea pig was suspended in ice-cooled 50 mM Tris hydroxymethyl aminomethane hydrochloride (Tris HCl) buffer (pH 7.7) by using Polytron homogenizer (manufactured by […] Co.). […] The suspension was centrifuged under the same conditions, and the final precipitate was suspended once again in 50 mM Tris HCl buffer to give a tissue concentration of 100 mg (wet weight)/ml. The tissue suspension was incubated at 37°C for 30 minutes in the presence of 0.02 unit/mg tissue of adenosine deaminase (manufactured by Sigma Co.). The tissue suspension was then centrifuged (50,000 x g, 10 minutes), and 50 mM Tris HCl buffer was added to the precipitate to adjust the concentration of tissue to 10 mg (wet weight)/ml. […] The mixture solution was allowed to stand at 25°C for 90 minutes and then rapidly filtered by suction through a glass fiber filter (GF/C manufactured by Whatman Co.). […] The radioactivity on the filter was determined with a liquid scintillation counter (manufactured by Packard Instrument Co.). […] The inhibition constant (Ki value) shown in the table was calculated by the Cheng-Prusoff's equation.
# [2] = tested on: dd-strain male mice; assay: Acute toxicity test (minimum lethal dose, oral); assay type: in vivo; conditions: oral administration, three mice per group, mortality seven days after administration
# Protocol: Test compounds were orally administered to groups of dd-strain male mice weighing 20 ± 1 g, each group consisting of three mice. Seven days after the administration, minimum lethal dose (MLD) of each compound was determined by observing the mortality.
# [3] = biological target: T2, A₂ receptor (Rattus norvegicus, UniProt P30543); assay: Adenosine A₂ receptor binding test (³H-NECA binding); conditions: for inhibition at 0.1 µM / inhibition at 1 µM / inhibition at 10 µM / inhibition at 100 µM: read-out: Inhibition (%) A₂ Receptor; for Ratio (A₁/A₂): ratio of Ki values A₁/A₂
# T2 construct: from tissue; host or cells: rat corpus striatum membrane preparation
# [4] = tested on: Haloperidol-Induced Catalepsy; assay: Effect on haloperidol-induced catalepsy; assay type: in vivo, mice; conditions: for ED50: Mus musculus, 1 h, ten mice at each dose, effective = catalepsy score 3 or less, Probit analysis, oral, read-out: ED₅₀; for Number of the Animals Showing Remission: of five mice, catalepsy score not more than 4 points; for Number of the Animals Showing Remission / Remission Rate (%) / Total Score: 10 mg/kg orally; for Remission Rate (%): rate of decrease in total score based on control group; for Total Score: total catalepsy score of five mice (25 points at the full), haloperidol 1.0 mg/kg i.p.
# Protocol: Haloperidol (Janssen Pharmaceutica) suspended in 0.3% CMC was intraperitoneally administered to each mouse at a dose of 1.0 mg/kg. Test compounds were suspended in 0.3% CMC or in injectable distilled water (Otsuka Pharmaceutical Co., Ltd.) containing Tween 80. L-DOPA (Kyowa Hakko Kogyo Co., Ltd.) and benserazide hydrochloride (Kyowa Hakko Kogyo Co., Ltd.) were suspended in 0.3% CMC. One hour after the haloperidol administration, the test compound suspensions and the control suspension [injectable distilled water (Otsuka Pharmaceutical Co., Ltd.) containing Tween 80] containing no test compound were orally administered to separate groups of the mice (0.1 ml per 10 g of body weight). One hour after the administration of the test compound, the forelimbs of each mouse and subsequently the hindlimbs of the same mouse were placed on a 4.5 cm-high, 1.0 cm-wide bar and catalepsy was estimated. […] The catalepsy score and the standard of judgment are shown below. […] The number of the animals showing remission against catalepsy is the number of the mice for which the catalepsy score was not more than 4 points. […] The ED₅₀ values were calculated by Probit analysis.
# T2 sequence (P30543 whole entry): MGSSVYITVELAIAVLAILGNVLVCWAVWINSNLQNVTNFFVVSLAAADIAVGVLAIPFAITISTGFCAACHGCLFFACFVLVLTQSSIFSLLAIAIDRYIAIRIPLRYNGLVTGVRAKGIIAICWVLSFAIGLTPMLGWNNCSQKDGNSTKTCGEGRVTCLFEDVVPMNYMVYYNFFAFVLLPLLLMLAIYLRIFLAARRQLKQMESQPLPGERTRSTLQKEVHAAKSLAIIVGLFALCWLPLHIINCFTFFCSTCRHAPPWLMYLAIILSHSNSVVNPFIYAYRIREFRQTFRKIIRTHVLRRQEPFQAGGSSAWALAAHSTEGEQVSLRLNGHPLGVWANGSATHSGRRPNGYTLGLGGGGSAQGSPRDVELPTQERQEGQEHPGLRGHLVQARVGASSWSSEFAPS
Compound,inhibition at 100 µM [1] [%],inhibition at 10 µM [1] [%],MLD [2] [mg/kg],inhibition at 0.1 µM [3] [%],inhibition at 1 µM [3] [%],inhibition at 10 µM [3] [%],inhibition at 100 µM [3] [%],Ki ([3]; ³H-NECA binding) [nM],Ki [1] [nM],Ratio (A₁/A₂) [3],ED50 [4] [mg/kg],Number of the Animals Showing Remission [4],Remission Rate (%) [4] [%],Total Score [4],"inhibition at 100 µM ([3]; 10⁻⁴M, ³H-NECA binding, rat corpus striatum) [%]","inhibition at 10 µM ([3]; 10⁻⁵M, ³H-NECA binding, rat corpus striatum) [%]","inhibition at 1 µM ([3]; 10⁻⁶M, ³H-NECA binding, rat corpus striatum) [%]","inhibition at 0.1 µM ([3]; 10⁻⁷M, ³H-NECA binding, rat corpus striatum) [%]"
"CCn1c(=O)c2c(nc(/C=C/c3cccc(OC)c3OC)n2C)n(CC)c1=O [Compound 4, (E)-8-(2,3-Dimethoxystyryl)-1,3-diethyl-7-methylxanthine]",70,55,> 300,57,84,88,90,33,,,,,,,,,,
"CCn1c(=O)c2[nH]c(/C=C/c3ccc(OC)c(OC)c3OC)nc2n(CC)c1=O [Compound 7, (E)-1,3-Diethyl-8-(2,3,4-trimethoxystyryl)xanthine]",49,34,> 300,65,88,75,83,15,> 10000,> 670,,,,,,,,
"CCn1c(=O)c2[nH]c(/C=C/c3ccc(OC)c(C)c3C)nc2n(CC)c1=O [Compound 9, (E)-1,3-Diethyl-8-(4-methoxy-2,3-dimethylstyryl)xanthine]",26,14,> 300,79,84,73,86,3.1,> 100000,"> 32,000",,,,,,,,
"CCn1c(=O)c2[nH]c(/C=C/c3ccc(OC)c(C)c3OC)nc2n(CC)c1=O [Compound 13, (E)-8-(2,4-Dimethoxy-3-methylstyryl)-1,3-diethylxanthine]",71,59,> 300,77,84,88,95,9.5,,,,,,,,,,
"CCn1c(=O)c2[nH]c(/C=C/c3ccc4c(c3)OCO4)nc2n(CC)c1=O [Compound 15, (E)-1,3-Diethyl-8-(3,4-methylenedioxystyryl)xanthine]",35,25,> 300,53,64,70,70,15,> 100000,,,,,,,,,
"CCn1c(=O)c2c(nc(/C=C/c3ccc4c(c3)OCO4)n2C)n(CC)c1=O [Compound 16, (E)-1,3-Diethyl-7-methyl-8-(3,4-methylenedioxystyryl)xanthine]",72,53,> 300,80,96,88,93,6.1,,,0.76,5,84,4,,,,
"CCn1c(=O)c2[nH]c(/C=C/c3ccc4c(c3)OCCO4)nc2n(CC)c1=O [Compound 17, (E)-8-[2-(1,4-Benzodioxan-6-yl)vinyl]-1,3-diethylxanthine]",31,23,> 100,70,69,80,80,6.3,> 100000,"> 16,000",,,,,,,,
"CCn1c(=O)c2c(nc(/C=C/c3ccc4c(c3)OCCO4)n2C)n(CC)c1=O [Compound 18, (E)-8-[2-(1,4-Benzodioxan-6-yl)vinyl]-1,3-diethyl-7-methylxanthine]",66,56,> 300,84,90,104,98,1.5,,,1.9,5,84,4,,,,
"COc1ccc(/C=C/c2nc3c([nH]2)c(=O)n(C)c(=O)n3C)c(OC)c1OC [Compound 19, (E)-8-(2,3,4-Trimethoxystyryl)theophylline]",31,10,> 300,65,87,92,91,310,> 100000,> 320,,,,,,,,
"COc1ccc(/C=C/c2nc3c([nH]2)c(=O)n(C)c(=O)n3C)c(C)c1C [Compound 21, (E)-8-(4-Methoxy-2,3-dimethylstyryl)theophylline]",40,36,> 100,56,68,83,79,22,> 100000,,,4,24,19,,,,
"COc1ccc(/C=C/c2nc3c(c(=O)n(C)c(=O)n3C)n2C)c(C)c1C [Compound 22, (E)-8-(4-Methoxy-2,3-dimethylstyryl)caffeine]",1,1,> 100,78,85,78,81,3,> 100000,"> 33,000",,3,20,20,,,,
"Cn1c(=O)c2[nH]c(/C=C/c3ccc4c(c3)OCO4)nc2n(C)c1=O [Compound 23, (E)-8-(3,4-Methylenedioxystyryl)theophylline]",38,32,> 300,,,,,,> 100000,,,,,,81,90,60,38
"Cn1c(=O)c2c(nc(/C=C/c3ccc4c(c3)OCO4)n2C)n(C)c1=O [Compound 24, (E)-8-(3,4-Methylenedioxystyryl)caffeine]",-25,-4,> 300,62,57,75,85,26,> 100000,"> 3,800",,,,,,,,
